Assay results as given in patent US7972828B2, “Stabilized compositions of thermostable DNA polymerase and anionic or zwitterionic detergent” (Sigma-Aldrich Co., priority 2006, dated 2011).

Columns and labels:
Type in all cases: biochemical
[1] = biological target: T1, Taq DNA polymerase (Thermus aquaticus, UniProt P19821); experiment: PCR detergent screening for ability to stabilize Taq DNA polymerase; settings: for Detergent supported PCR in screening reactions: detergent tested at 5%, 0.5%, 0.05%, 0.005% or 0.0005%
T1 construct: purchased Sigma Aldrich, St. Louis, Mo
T1 sequence (P19821 whole entry): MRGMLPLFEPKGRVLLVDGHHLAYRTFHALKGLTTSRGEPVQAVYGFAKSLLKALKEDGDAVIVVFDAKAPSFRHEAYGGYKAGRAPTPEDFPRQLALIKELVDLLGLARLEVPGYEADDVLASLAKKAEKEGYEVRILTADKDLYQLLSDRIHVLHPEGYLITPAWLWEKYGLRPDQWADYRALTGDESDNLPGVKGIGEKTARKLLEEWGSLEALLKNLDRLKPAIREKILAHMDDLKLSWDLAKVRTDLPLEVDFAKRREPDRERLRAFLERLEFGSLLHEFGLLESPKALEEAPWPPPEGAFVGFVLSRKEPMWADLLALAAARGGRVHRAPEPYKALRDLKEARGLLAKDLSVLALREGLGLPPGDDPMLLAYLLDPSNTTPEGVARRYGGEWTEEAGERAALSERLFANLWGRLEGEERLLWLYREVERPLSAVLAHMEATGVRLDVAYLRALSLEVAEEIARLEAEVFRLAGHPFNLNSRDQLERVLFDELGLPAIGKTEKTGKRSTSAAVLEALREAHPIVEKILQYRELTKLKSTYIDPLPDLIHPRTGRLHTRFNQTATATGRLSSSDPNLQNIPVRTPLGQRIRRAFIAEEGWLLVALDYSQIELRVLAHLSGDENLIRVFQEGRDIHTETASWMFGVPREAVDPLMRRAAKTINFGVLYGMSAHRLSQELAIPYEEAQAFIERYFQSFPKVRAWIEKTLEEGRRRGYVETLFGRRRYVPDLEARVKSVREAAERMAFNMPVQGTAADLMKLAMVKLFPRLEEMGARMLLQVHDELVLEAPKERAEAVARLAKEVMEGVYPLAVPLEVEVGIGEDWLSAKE
Procedure: A PCR assay was used to screen 47 of the potential candidate detergents for their ability to stabilize Taq DNA polymerase. The final concentration of each detergent tested was 5%, 0.5%, 0.05%, 0.005%, or 0.0005%. A forward primer (5′-[…]-3′; SEQ ID No:1) and a reverse primer (5′-[…]-3′; SEQ ID No:2) were designed to amplify a 500 bp fragment of lambda DNA. Each 10 μl reaction contained:
1 μl 10 μM Forward Primer
1 μl 10 μM Reverse Primer
0.1 μl 5 Units/μl Taq DNA polymerase
The cycling parameters were 94° C. for 15 min and 30 cycles of 94° C. for 30 sec and 70° C. for 30 sec, and a 4° C. hold. For each series of detergents tested, positive control reactions comprising 0.0005% Tween 20 were included, as well as negative control reactions without any detergent. An aliquot of each reaction was resolved by agarose gel electrophoresis.

[2] = biological target: T1, Taq DNA polymerase; experiment: Long-term stability of Taq formulations with DTT, assessed by PCR; settings: stored at 25° C. 6 to 40 days, higher concentration of DTT (0.2 mM)
Procedure: The long-term stability of Taq formulated with either Tween 20, an anionic detergent, or a zwitterionic detergent was compared in the presence of two concentrations of DTT. Taq was formulated with 0.01% or 0.1% Tween 20, 0.1% or 1% poly(ethylene glycol) 4-nonylphenyl 3 sulfopropyl ether potassium salt, or 1% CHAPS. Each formulation was stored in the presence of 0.02 mM DTT or 0.2 mM DTT at 25° C. for periods of time ranging from 6 days to 40 days. The calculated corresponding periods for storage at −20° C. ranged from about 1.5 years to about 10 years (see FIG. 2). The ability of various formulations of Taq to support PCR was assessed using a PCR assay similar to that described in Example 1. The same primers and reactions conditions were used.
An aliquot of each reaction was resolved by agarose gel electrophoresis.

[3] = biological target: T1, Taq DNA polymerase; experiment: SYBR Green quantitative real-time PCR amplification efficiency on human genomic DNA; set-up: key to Reaction Efficiencies CD14F: *: No amplification product; key to Ct 14-3-3 / Ct CD14F / Ct HoxA2: cycle at which fluorescence exceeds a defined threshold; settings: for Efficiency (dilutional efficiency) 14-3-3 / Efficiency (dilutional efficiency) CD14F / Efficiency (dilutional efficiency) HoxA2 / Efficiency (dilutional efficiency) PGK1: slope of serially diluted template plots
Excerpt: The efficiency of amplification by Taq DNA polymerase in the presence of Tween 20 or the anionic detergent, poly (ethylene glycol) 4-nonylphenyl 3 sulfopropyl ether potassium salt, was compared using SYBR Green quantitative real-time PCR (qPCR) to amplify four different fragments in Msel-digested or intact human genomic DNA. Each reaction comprised 1× Jumpstart Taq Ready mix (Sigma Aldrich, St. Louis, Mo.) formulated with Tween 20 or poly (ethylene glycol) 4-nonylphenyl 3 sulfopropyl ether potassium salt, 1×ROX (reference dye), 0.8×SYBR green, 0.4 μM primers. The template was serially diluted such that reactions contained 25 ng, 2.5 ng, or 0.25 ng of intact DNA or 400 ng, 40 ng, of 4 ng of digested DNA. The cycling profile was 95° C. for 3 min, 35 cycles of 95° C. for 30 sec, 55° C. for 60 sec, and 72° C. for 120 sec.
Table 2 presents the Ct values (which is the cycle that the fluorescence exceeds a defined threshold value) for each amplified product using the different templates. The ‘no template’ control reactions (for every primer pair) produced no amplicons.
The efficiency of amplification was derived from the slopes of the serially diluted template amplification plots (dilutional efficiency), and the percent efficiency is also presented in Table 2.
Individual reaction efficiencies were calculated in an effort to explore the nature of the dilutional efficiency effects. […] That is, reactions with lower amounts of template were less efficiently primed or initiated in the presence of Tween 20 than in the presence of the anionic surfactant. Once the amplification process began, however, the reaction efficiencies were detergent independent.

[4] = biological target: T1, Taq DNA polymerase; experiment: Specificity of PCR amplification (BsrGIO, SacIO fragments) on agarose gel; settings: 352 bp and 360 bp fragments, HEK293 genomic DNA
Procedure: To determine whether amplification in the presence of the anionic detergent, poly (ethylene glycol) 4-nonylphenyl 3-sulfopropyl ether potassium salt, produced less non-specific products, formulations comprising Tween 20 were compared to an anionic detergent formulation. Primers (see Table 4) were designed to amplify a 352 by fragment (BsrGIO) and a 360 by fragment (SacIO) in human genomic DNA. The reactions (50 μl) contained […] HEK293 genomic DNA, […], 1×PCR Buffer, 0.2 mM dNTPs, 0.05 U/μL Taq, and 4% DMSO. Thermocycling parameters were 94° C. for 2 min, 30 cycles of 94° C. for 20 sec, 58° C. for 30 sec, and 72° C. for 80 sec, a final extension at 72° C. for 10 min, and a 4° C. hold.
Aliquots of each sample were run on an agarose gel (FIG. 3). […] This finding raises the possibility that there may be a multimolecular complex comprising template, primer, detergent, and enzyme, and it is possible that the anionic detergent increased the coulombic repulsion between template/primers and the […].

For poly(ethylene glycol) monolaurate, the “Detergent supported PCR in screening reactions” value (shortened to “Detergent supported PCR”) [1] was “supported PCR”.
In the case of “polyoxyethylene(150)dinonylphenyl ether [Igepal® DM-970]”, the “Detergent supported PCR” value [1] is reported as “supported PCR”.
With “poly (ethylene glycol) 4-nonylphenyl 3-sulfopropyl ether potassium salt [Anionic]” the “Detergent supported PCR” value [1] was “supported PCR”, the “Ability of stored Taq formulation to support PCR” value [2] was “able to support PCR at all the times tested” and the “Ct 14-3-3” value ([3]; Intact DNA, 0.25 ng) was 30.8. The “Ct CD14F” value ([3]; Intact DNA, 0.25 ng) was “No Ct”, the “Ct HoxA2” value ([3]; Intact DNA, 0.25 ng) was 30.41 and the “Ct PGK1” value ([3]; Intact DNA, 0.25 ng) was 31.59. The “Ct 14-3-3” value ([3]; Intact DNA, 2.5 ng) was 27.88, the “Ct CD14F” value ([3]; Intact DNA, 2.5 ng) was 33.98 and the “Ct HoxA2” value ([3]; Intact DNA, 2.5 ng) was 26.92. For the same compound, the “Ct PGK1” value ([3]; Intact DNA, 2.5 ng) was 28.33, the “Ct 14-3-3” value ([3]; Intact DNA, 25 ng) was 24.31 and the “Ct CD14F” value ([3]; Intact DNA, 25 ng) was 28.72. For the same compound, the “Ct HoxA2” value ([3]; Intact DNA, 25 ng) was 23.33, the “Ct PGK1” value ([3]; Intact DNA, 25 ng) was 23.62 and the “Reaction Efficiencies 14-3-3” value ([3]; Intact DNA, 0.25) was 98%. For the same compound, the “Reaction Efficiencies CD14F” value ([3]; Intact DNA, 0.25) was “*”, the “Reaction Efficiencies HoxA2” value ([3]; Intact DNA, 0.25) was 102% and the “Reaction Efficiencies PGK1” value ([3]; Intact DNA, 0.25) was 97%. The “Reaction Efficiencies 14-3-3” value ([3]; Intact DNA, 2.5) was 115%, the “Reaction Efficiencies CD14F” value ([3]; Intact DNA, 2.5) was 124% and the “Reaction Efficiencies HoxA2” value ([3]; Intact DNA, 2.5) was 102%. For the same compound, the “Reaction Efficiencies PGK1” value ([3]; Intact DNA, 2.5) was 101%, the “Reaction Efficiencies 14-3-3” value ([3]; Intact DNA, 25) was 102% and the “Reaction Efficiencies CD14F” value ([3]; Intact DNA, 25) was 99%. The “Reaction Efficiencies HoxA2” value ([3]; Intact DNA, 25) was 104%, the “Reaction Efficiencies PGK1” value ([3]; Intact DNA, 25) was 98% and the “Efficiency (dilutional efficiency) 14-3-3” value ([3]; Intact DNA) was 105%. The “Efficiency (dilutional efficiency) CD14F” value ([3]; Intact DNA) was 26%, the “Efficiency (dilutional efficiency) HoxA2” value ([3]; Intact DNA) was 86% and the “Efficiency (dilutional efficiency) PGK1” value ([3]; Intact DNA) was 63%. For the same compound, the “Ct 14-3-3” value ([3]; Mse-I digested DNA, 4 ng) was 28.65, the “Ct CD14F” value ([3]; Mse-I digested DNA, 4 ng) was “No Ct” and the “Ct HoxA2” value ([3]; Mse-I digested DNA, 4 ng) was 29.96. The “Ct PGK1” value ([3]; Mse-I digested DNA, 4 ng) was 31.38, the “Ct 14-3-3” value ([3]; Mse-I digested DNA, 40 ng) was 24.86 and the “Ct CD14F” value ([3]; Mse-I digested DNA, 40 ng) was 34.72. The “Ct HoxA2” value ([3]; Mse-I digested DNA, 40 ng) was 26.47, the “Ct PGK1” value ([3]; Mse-I digested DNA, 40 ng) was 27.95 and the “Ct 14-3-3” value ([3]; Mse-I digested DNA, 400 ng) was 21.17. For the same compound, the “Ct CD14F” value ([3]; Mse-I digested DNA, 400 ng) was 30.15, the “Ct HoxA2” value ([3]; Mse-I digested DNA, 400 ng) was 22.27 and the “Ct PGK1” value ([3]; Mse-I digested DNA, 400 ng) was 23.17. For the same compound, the “Efficiency (dilutional efficiency) 14-3-3” value ([3]; Mse-I digested DNA) was 75%, the “Efficiency (dilutional efficiency) CD14F” value ([3]; Mse-I digested DNA) was 42% and the “Efficiency (dilutional efficiency) HoxA2” value ([3]; Mse-I digested DNA) was 69%. The “Efficiency (dilutional efficiency) PGK1” value ([3]; Mse-I digested DNA) was 58%, the “Reaction Efficiencies 14-3-3” value ([3]; MseI digested DNA, 4 ng) was 103% and the “Reaction Efficiencies CD14F” value ([3]; MseI digested DNA, 4 ng) was “*”. For the same compound, the “Reaction Efficiencies HoxA2” value ([3]; MseI digested DNA, 4 ng) was 99%, the “Reaction Efficiencies PGK1” value ([3]; MseI digested DNA, 4 ng) was 97% and the “Reaction Efficiencies 14-3-3” value ([3]; MseI digested DNA, 40 ng) was 107%. For the same compound, the “Reaction Efficiencies CD14F” value ([3]; MseI digested DNA, 40 ng) was 92%, the “Reaction Efficiencies HoxA2” value ([3]; MseI digested DNA, 40 ng) was 101% and the “Reaction Efficiencies PGK1” value ([3]; MseI digested DNA, 40 ng) was 102%. The “Reaction Efficiencies 14-3-3” value ([3]; MseI digested DNA, 400 ng) was 101%, the “Reaction Efficiencies CD14F” value ([3]; MseI digested DNA, 400 ng) was 99% and the “Reaction Efficiencies HoxA2” value ([3]; MseI digested DNA, 400 ng) was 100%. For the same compound, the “Reaction Efficiencies PGK1” value ([3]; MseI digested DNA, 400 ng) was 97%, the “Average efficiency of the three amplicons with efficiencies for both formulations” value ([3]; digested templates) was 67.3% and the “Efficiency compared with the corresponding Tween 20 formulation” value ([3]; each amplicon) was “higher efficiency”. For the same compound, the “Ct values compared with Tween 20-containing amplification mixes” value ([3]; higher dilutions of template) was “lower Ct values at higher dilutions”, the “Average efficiency of the three amplicons with efficiencies for both formulations” value ([3]; intact templates) was 84.7% and the “Non-specific, secondary amplification products compared with standard Tween 20 formulations” value [4] was “fewer non-specific, secondary amplification products”.
In the case of `C[C@H](CCC(=O)NCCC[N+](C)(C)CC(O)CS(=O)(=O)[O-])[C@H]1CC[C@H]2[C@@H]3[C@H](O)C[C@@H]4C[C@H](O)CC[C@]4(C)[C@H]3C[C@H](O)[C@]12C` (stereo partly shown) [CHAPSO, 3-[(3-cholamidopropyl)dimethylammonio]-2-hydroxy-1-propanesulfonate], the “Detergent supported PCR” value [1] is reported as “supported PCR”.
For `C[C@H](CCC(=O)NCCC[N+](C)(C)CCCS(=O)(=O)[O-])[C@H]1CC[C@H]2[C@@H]3[C@H](O)C[C@@H]4C[C@H](O)CC[C@]4(C)[C@@]3(C)C[C@H](O)[C@]12C` [CHAPS, 3-[(3-cholamidopropyl)dimethylammonio]-1-propanesulfonate], the “Detergent supported PCR” value [1] was “supported PCR” and the “Ability of stored Taq formulation to support PCR” value [2] was “substantially able to support PCR”.
For “nonyl nonoxynol-15 phosphate [Rhodafac RM710]”, the “Detergent supported PCR” value [1] was “supported PCR” and the “Amplified products (500 bp lambda DNA fragment) on agarose gel” value ([1]; low concentration of the detergent) was “Amplified products were present”.
